Results on 5 compounds are retold here after DBAASP.

Molecules are shown by their SMILES. In brackets after ≈: the same amount, converted by molar mass.

Among the test systems are Listeria monocytogenes; Escherichia coli O157; Salmonella typhimurium; Staphylococcus capitis 1; Bacillus megaterium Bm11; Pyricularia grisea PR-9; Botrytis cinerea #8; Alternaria sp. PHI-44; Penicillium sp. PHI-8; Bacillus subtilis; Escherichia coli.
Assay in all cases: ≥ marks a high value that may be exact or a test limit, other limits are often not marked, values filed in µg/mL are converted to µM
Assay [1] deals with Staphylococcus aureus ATCC 29213.
Assay [2] has as its system Staphylococcus aureus ATCC 43300.
Assay [3] deals with Micrococcus luteus ATCC 10420.
Assay [4] relates to Staphylococcus epidermidis ATCC 9709.
Assay [5] has as its system Escherichia coli ATCC 25404.
Assay [6] concerns Candida albicans ATCC 10231.
The test system of assay [7] is Staphylococcus aureus Cowan 1.
Assay [8] concerns Escherichia coli ATCC 25922.
Assay [9] concerns Yersinia pseudotuberculosis YPIII.
In assay [10] the test system is Penicillium digitatum PHI-26.
Assay [11] concerns Penicillium italicum PHI-1.
Assay [12] concerns Aspergillus nidulans biA1.
The subject of assay [13] is Fusarium oxysporum CECT 2866.
Assay [14] concerns Bacillus subtilis CECT 498.
The test system of assay [15] is Escherichia coli DH5alpha.
The test system of assay [16] is Saccharomyces cerevisiae FY1679.
Assay [17] deals with Penicillium expansum PHI-65.
The subject of assay [18] is Staphylococcus aureus ATCC 6538.
The subject of assay [19] is Pseudomonas aeruginosa ATCC 15422.
Assay [20] deals with Bacillus subtilis CCT 2576.
Assay [21] deals with Listeria monocytogenes EGD.
In assay [22] the test system is Bacillus cereus ATCC 14579.
Assay [23] relates to Staphylococcus saprophyticus ATCC 19701.
Assay [24] relates to Staphylococcus haemolyticus DSM 20263.
For assay [25], the system named is Staphylococcus aureus ATCC 29740.
In assay [26] the test system is Klebsiella pneumoniae ATCC 13882.
For assay [27], the system named is Enterobacter cloacae ATCC 13047.
Assay [28] has as its system Salmonella enterica subsp. enterica serovar Typhimurium ATCC 14028.
The test system of assay [29] is Salmonella enterica subsp. enterica serovar Enteritidis LA5.
For assay [30], the system named is Pseudomonas aeruginosa ATCC 25010.
Assay [31] concerns Salmonella enterica subsp. enterica serovar Enteritidis ATCC 13076.

Broadly, the MIC is the smallest concentration in the dilution series that meets the test's criterion for growth inhibition. Take `CC(C)C[C@H](NC(=O)[C@H](CC(C)C)NC(=O)[C@H](CCCCN)NC(=O)[C@H](CO)NC(=O)[C@H](CC(C)C)NC(=O)[C@H](C)NC(=O)[C@H](Cc1cnc[nH]1)NC(=O)[C@H](Cc1ccccc1)NC(=O)[C@H](CC(C)C)NC(=O)[C@H](C)NC(=O)CNC(=O)[C@H](CC(C)C)NC(=O)[C@@H](N)Cc1ccccc1)C(=O)O` [FLGALFHALSKLL]: the MIC was 4 µM (≈ 5.72 µg/mL) in assay [1]; 8 µM (≈ 11.4 µg/mL) against Listeria monocytogenes; 4 µM (≈ 5.72 µg/mL) in assay [2]; 2 µM (≈ 2.86 µg/mL) in assay [3]; 4 µM (≈ 5.72 µg/mL) in assay [4]; at least 64 µM with Escherichia coli O157. In addition, the MIC (in the assay on Salmonella typhimurium; in assay [5]) was at least 64 µM each time.
Take `CC[C@H](C)[C@H](NC(=O)CNC(=O)[C@H](CO)NC(=O)[C@H](CC(C)C)NC(=O)[C@@H](NC(=O)[C@H](CCCN=C(N)N)NC(=O)CNC(=O)[C@@H](NC(=O)[C@H](CC(C)C)NC(=O)[C@@H]1CCCN1C(=O)[C@H](CC(C)C)NC(=O)[C@@H](N)Cc1ccccc1)[C@@H](C)CC)C(C)C)C(=O)N[C@@H](C)C(N)=O` [FLPLIGRVLSGIA]: the MIC in assay [6] was 40 µM (≈ 54.2 µg/mL); in the assay on Staphylococcus capitis 1, at least 40 µM; in assay [7] it was at least 40 µM; against Bacillus megaterium Bm11, 20 µM (≈ 27.1 µg/mL); in assay [8], above 40 µM; in assay [9], at least 40 µM.
In the case of `CSCC[C@H](NC(=O)[C@H](CCCN=C(N)N)NC(=O)[C@H](Cc1c[nH]c2ccccc12)NC(=O)[C@H](CCC(N)=O)NC(=O)[C@H](Cc1c[nH]c2ccccc12)NC(=O)[C@H](CCCN=C(N)N)NC(=O)[C@H](CCCN=C(N)N)NC(=O)[C@H](CS)NC(=O)[C@H](CCCCN)NC(=O)[C@H](Cc1ccccc1)NC(C)=O)C(=O)N[C@@H](CCCCN)C(=O)N[C@@H](CCCCN)C(=O)N[C@@H](CC(C)C)C(=O)NCC(=O)N[C@@H](C)C(N)=O` [FKCRRWQWRMKKLGA], the MIC in assay [10] is 4 µM (≈ 8.14 µg/mL); in assay [11], 4 µM (≈ 8.14 µg/mL); in [12] it was 4 µM (≈ 8.14 µg/mL); in assay [13] it was 8 µM (≈ 16.3 µg/mL); in assay [14], 16 µM (≈ 32.6 µg/mL); with Pyricularia grisea PR-9 it was at least 32 µM. Further, the MIC in assay [15] was 16 µM (≈ 32.6 µg/mL); with Botrytis cinerea #8, 16 µM (≈ 32.6 µg/mL); in assay [16], at least 32 µM; in [17] it was 8 µM (≈ 16.3 µg/mL); in the assay on Alternaria sp. PHI-44, 16 µM (≈ 32.6 µg/mL); in the assay on Penicillium sp. PHI-8, 8 µM (≈ 16.3 µg/mL).
Regarding `CC[C@H](C)[C@H](N)C(=O)N[C@@H](CC(N)=O)C(=O)N[C@@H](Cc1c[nH]c2ccccc12)C(=O)N[C@@H](CCCCN)C(=O)N[C@@H](CCCCN)C(=O)N[C@@H](CC(C)C)C(=O)N[C@@H](CC(C)C)C(=O)N[C@@H](CC(=O)O)C(=O)N[C@@H](C)C(=O)N[C@@H](C)C(=O)N[C@@H](CCCCN)C(=O)N[C@@H](CCC(N)=O)C(=O)N[C@H](C(=O)N[C@@H](CC(C)C)C(N)=O)[C@@H](C)CC` [INWKKLLDAAKQIL], the MIC was 7.8 µM (≈ 12.9 µg/mL) in assay [18], 28.3 µM (≈ 46.8 µg/mL) in assay [19], 2.96 µM (≈ 4.9 µg/mL) in [20] and 5.8 µM (≈ 9.59 µg/mL) in assay [8].
On to `CC[C@H](C)[C@H](NC(=O)[C@H](CCCN=C(N)N)NC(=O)[C@H](CCCCN)NC(=O)[C@@H]1CSSC[C@@H]2NC(=O)[C@H](CCCCN)NC(=O)[C@H](CC(C)C)NC(=O)[C@H](Cc3ccccc3)NC(=O)[C@H](C)NC(=O)[C@@H]3CSSC[C@H](NC(=O)[C@H](CCCCN)NC(=O)CNC(=O)[C@H](CO)NC(=O)[C@H]([C@@H](C)CC)NC(=O)[C@H](CC(C)C)NC(=O)[C@H]([C@@H](C)O)NC(=O)[C@H](CC(C)C)NC(=O)[C@H](CO)NC(=O)[C@@H]4CCCN4C2=O)C(=O)N[C@@H](CO)C(=O)N[C@@H](CCCN=C(N)N)C(=O)N[C@@H](Cc2ccccc2)C(=O)N[C@@H](Cc2ccc(O)cc2)C(=O)N[C@@H](CC(C)C)C(=O)N[C@@H](CSSC[C@H](NC(=O)[C@H](CC(=O)O)NC(=O)[C@H](CO)NC(=O)[C@H](CCCCN)NC(=O)[C@H](CCCN=C(N)N)NC(=O)CN)C(=O)N[C@@H](Cc2ccccc2)C(=O)N[C@@H](CCCN=C(N)N)C(=O)N[C@@H](CCCCN)C(=O)N[C@@H](CO)C(=O)NCC(=O)N[C@@H](Cc2ccccc2)C(=O)N3)C(=O)N1)C(=O)N[C@@H](Cc1c[nH]c2ccccc12)C(N)=O` [GRKSDCFRKSGFCAFLKCPSLTLISGKCSRFYLCCKRIW], for which the MIC was 0.187 µM (≈ 0.844 µg/mL) against Bacillus subtilis; 0.236 µM (≈ 1.06 µg/mL) in assay [21]; 0.208 µM (≈ 0.938 µg/mL) in assay [22]; 0.147 µM (≈ 0.662 µg/mL) in [23]; 0.13 µM (≈ 0.584 µg/mL) in assay [24]; 0.06 µM (≈ 0.27 µg/mL) in [25]. Besides, the MIC in assay [26] was determined as 0.0872 µM (≈ 0.393 µg/mL); in [27], 0.177 µM (≈ 0.799 µg/mL); against Escherichia coli it was 0.256 µM (≈ 1.15 µg/mL); in [28] it was 0.139 µM (≈ 0.624 µg/mL); in assay [29], 0.147 µM (≈ 0.662 µg/mL); in [30] it was 0.244 µM (≈ 1.1 µg/mL). The compound also showed an MIC in [31] of 0.163 µM (≈ 0.732 µg/mL).
